Measurements as given in BindingDB's records for doi:10.1074/jbc.M113.493767 (Novartis Institute For Tropical Diseases, 2013).
Numbered stars: 1 amine (or outer) side, 2 acyl side, 3 side chain; on linkers, the order of the positions; unused ones are H or OH. Square brackets hold non-standard residues; d marks the D form. Peptide text beside a SMILES is read from it. X1 = CC(C)([C@@H](O)CNCCCN)n1cc([C@@H](O)[C@H](N[*:1])C(=O)[*:2])c2ccccc21; Ala(3R-Me,3-isobutenyl) = CC(C)=C[C@@H](C)[C@H](N)C(=O)O; NMeLeu(5-OH,4R) = CN[C@@H](C[C@@H](C)CO)C(=O)O; Phe(βR-OMe) = CO[C@H](c1ccccc1)[C@H](N)C(=O)O; NMeL = CN[C@@H](CC(C)C)C(=O)O

Molecular target: ATP-dependent Clp protease ATP-binding subunit ClpC1 (Mycobacterium tuberculosis (strain ATCC 25618 / H37Rv), UniProt P9WPC9)
Sequence (P9WPC9 whole entry): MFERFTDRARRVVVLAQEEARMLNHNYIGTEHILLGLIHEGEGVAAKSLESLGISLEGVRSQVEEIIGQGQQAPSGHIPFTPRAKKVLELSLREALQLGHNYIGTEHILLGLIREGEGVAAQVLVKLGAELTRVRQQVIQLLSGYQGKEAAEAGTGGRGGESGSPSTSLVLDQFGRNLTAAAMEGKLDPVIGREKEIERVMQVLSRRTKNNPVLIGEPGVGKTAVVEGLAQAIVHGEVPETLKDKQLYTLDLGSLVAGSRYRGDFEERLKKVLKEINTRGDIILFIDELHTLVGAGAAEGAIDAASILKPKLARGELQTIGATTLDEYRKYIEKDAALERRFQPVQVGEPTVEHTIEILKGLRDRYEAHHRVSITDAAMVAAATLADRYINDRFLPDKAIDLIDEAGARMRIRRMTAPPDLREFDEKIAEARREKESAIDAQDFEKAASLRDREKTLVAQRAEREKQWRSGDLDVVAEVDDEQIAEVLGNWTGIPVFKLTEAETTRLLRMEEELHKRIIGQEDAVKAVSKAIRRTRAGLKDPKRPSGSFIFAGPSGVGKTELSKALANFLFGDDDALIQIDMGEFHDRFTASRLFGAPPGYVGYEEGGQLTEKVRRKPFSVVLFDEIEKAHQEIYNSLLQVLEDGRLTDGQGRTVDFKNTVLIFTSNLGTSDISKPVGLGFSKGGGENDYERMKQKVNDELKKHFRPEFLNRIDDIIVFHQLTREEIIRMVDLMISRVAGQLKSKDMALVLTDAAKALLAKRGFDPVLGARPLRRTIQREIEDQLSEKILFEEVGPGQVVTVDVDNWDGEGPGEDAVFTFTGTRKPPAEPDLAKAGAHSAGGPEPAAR
Assay: Isothermal Titration Calorimetry (ITC)
Conditions: pH 7.5; 25 °C
Protocol: Isothermal titration calorimetry experiments were performed using an iTC200 (GEHealthcare) at 25 °C, with 15-20 μM ClpC1 (in 20 mM Tris-HCl, pH 7.5, 300 mM NaCl, 1 mM EDTA, 1 mM Tris(2-carboxyethyl) phosphine, 9% DMSO) in the sample cell. Typically, 19 injections of 2 μl of 150-200 μM CymA1 solution in the same bufferwere injected into the sample cell at 2.5-min intervals.

Compound: CO[C@H](c1ccccc1)[C@@H]1NC(=O)[C@H](C)NC(=O)[C@H](C[C@@H](C)CO)N(C)C(=O)[C@H]([C@H](O)c2cn(C(C)(C)[C@@H](O)CNCCCN)c3ccccc23)NC(=O)[C@H]([C@H](C)C=C(C)C)NC(=O)[C@H](CC(C)C)N(C)C(=O)[C@H](C(C)C)NC1=O [Cyclomarin A1 (CymA1)] (cyclo(A[Phe(βR-OMe)]V[NMeL][Ala(3R-Me,3-isobutenyl)][X1][NMeLeu(5-OH,4R)]))
- Kd: 17.5 nM
